Here are results for 7 molecules from paper PMC6199744, “Development of Chemical Proteomics for the Folateome and Analysis of the Kinetoplastid Folateome” (ACS Infectious Diseases, 2018).

In the test the test system is haloacid dehalogenase-like hydrolase (LmjF.28.1370). The test can be described thus: Multitargeted bead mixture competition. To be noted: for fold change: protein LMJF.28.1370 HALOACID DEHALOGENASE-LIKE HYDROLASE, PUTATIVE, vehicle control = 1. The class given is binding, Leishmania.

Turning to `Nc1nc2cccc(-c3ccccc3)c2n1Cc1ccc(Cl)c(Cl)c1` [compound 3], the fold change was found to be 1.07.
Turning to `NCCOCCOCC(=O)Nc1nc2ncc(CNc3ccc(C(=O)NC(CCC(=O)O)C(=O)O)cc3)nc2c(=O)[nH]1` (centres unmarked) [compound 6], the fold change came out at 0.89.
For the molecule `Nc1nc2[nH]cc(CCc3ccc(C(=O)N[C@@H](CCC(=O)O)C(=O)O)cc3)c2c(=O)[nH]1` [PTX, pemetrexed], the fold change is listed as 0.93.
Consider `Nc1nc2c(c(=O)[nH]1)N(C=O)C(CNc1ccc(C(=O)N[C@@H](CCC(=O)O)C(=O)O)cc1)CN2` (some centres unmarked) [LEU, leucovorin], for which the fold change is 1.05.
As for `CCCCCCOc1ccc(Cc2cnc(N)nc2N)cc1` [compound 1], the fold change is listed as 0.13. Also, the “interaction with haloacid dehalogenase-like hydrolase (LmjF.28.1370)” value (bead mixture, Leishmania lysates) is “interacted strongly”.
For the molecule `NCCCNc1ccc(C(=O)NC(CCC(=O)O)C(=O)O)cc1` (centres unmarked) [compound 7], the fold change is 1.02.
For the molecule `CCCCCCOc1cccc(Cc2cnc(N)nc2N)c1` [compound 2], the fold change came out at 1.
